The test system of assay [1] is NCI-H358. Kind of assay: Antiproliferative activity against human NCI-H358 cells harboring KRAS G12C mutant assessed as inhibition of cell proliferation incubated for 48 hrs by MTT assay. The following applies: NCI-H358, 48 h. The class given is functional, cell-based.
Assay [2] concerns MIA PaCa-2. Kind of assay: Antiproliferative activity against human MIA PaCa-2 cells harboring KRAS G12C mutant assessed as inhibition of cell proliferation incubated for 48 hrs by MTT assay. The assay is classed as functional, cell-based. The following applies: MIA PaCa-2, 48 h.
The subject of assay [3] is Protein cereblon/GTPase KRas (Homo sapiens), P01116+Q96SW2 [G12C]. Kind of assay: Protac activity at CRBN/KRAS G12C mutant in human NCI-H358 cells assessed as induction of KRAS G12C protein degradation at 10 uM preincubated for 1 hr with proteasome inhibitor, MG-132 followed by compound addition and measured after 24 hrs by Western blot analysis. The assay is classed as cell-based. A general note: Immunoblotting shows a protein as a band on a membrane.

The test system is the same in assay [4]. The experiment in a line: Protac activity at CRBN/KRAS G12C mutant in human NCI-H358 cells assessed as induction of KRAS G12C protein degradation at 1 uM incubated for 24 hrs by Western blot analysis. The class given is cell-based.
Assay [5] has as its system GTPase KRas (Homo sapiens), P01116 [G12C]. The experiment in a line: In vivo target occupancy at KRAS G12C mutant in human MIA PaCa-2 cells xenografted athymic BALB/c nude mouse measured at 30 mins. The assay is classed as functional, cell-based. For orientation: In xenograft studies the graft and the host belong to different species.
The test system of assay [6] is NCI-H358. The experiment in a line: Antiproliferative activity against human NCI-H358 cells harboring KRAS G12C mutant assessed as inhibition of cell growth. The class given is functional, cell-based.
For assay [7], the system named is MIA PaCa-2. The experiment in a line: Antiproliferative activity against human MIA PaCa-2 cells harboring KRAS G12C mutant assessed as inhibition of cell growth incubated for 5 days by celltiter-glow luminescent cell viability assay. The class given is functional, cell-based. The following applies: MIA PaCa-2, 120 h.
Assay [8] has as its system NCI-H358. Kind of assay: Antiproliferative activity against human NCI-H358 cells harboring KRAS G12C mutant assessed as inhibition of cell growth incubated for 5 days by celltiter-glow luminescent cell viability assay. The class given is functional, cell-based. Particulars: NCI-H358, 120 h. Background: Cellular ATP, detected with luciferase, serves as a proxy for viable cell number.

Assay [9] has as its system von Hippel-Lindau disease tumor suppressor/GTPase KRas (Homo sapiens), P01116+P40337 [G12C]. The experiment in a line: Protac activity at VHL/KRAS G12C mutant in human NCI-H358 cells assessed as induction of KRAS G12C protein degradation incubated for 24 hrs by Western blot analysis. The class given is cell-based. Particulars: dose 5-25 µM.
Assay [10] relates to NCI-H358. Kind of assay: Inhibition of ERK phosphorylation in human NCI-H358 cells at 1 to 10 uM incubated for 24 hrs by Western blot analysis. The assay is classed as cell-based. The following applies: dose 1-10 µM.
Assay [11] relates to von Hippel-Lindau disease tumor suppressor/GTPase KRas (Homo sapiens), P01116+P40337 [G12C]. The experiment in a line: Protac activity at VHL/KRAS G12C mutant in human NCI-H358 cells assessed as induction of KRAS G12C protein degradation at 10 uM incubated for 24 hrs by Western blot analysis. The assay is classed as cell-based.
The test system is the same in assay [12]. Kind of assay: Protac activity at VHL/KRAS G12C mutant in human NCI-H358 cells assessed as induction of KRAS G12C protein degradation at 1 uM incubated for 24 hrs by Western blot analysis. The class given is cell-based.
For assay [13] the test system is unchanged. The experiment in a line: Protac activity at VHL/KRAS G12C mutant in human NCI-H358 cells assessed as induction of KRAS G12C protein degradation at 10 uM preincubated for 1 hr with proteasome inhibitor, MG-132 followed by compound addition and measured after 24 hrs by Western blot analysis. The class given is cell-based.
In a further assay the target is GTPase KRas (Homo sapiens, UniProt P01116, G12C). Kind of assay: Induction of KRAS G12C degradation in human MIA PaCa-2 cells assessed as reduction in KRAS G12C protein level incubated for 24 hrs by immunoblotting analysis. The assay is classed as cell-based.
Assay [14] deals with MIA PaCa-2. Kind of assay: Antiproliferative activity against human MIA PaCa-2 cells harboring KRAS G12C mutant assessed as inhibition of cell growth. The class given is functional, cell-based.

Calls of active or inactive are those of the source. No cut-off for these calls is given here.

GTPase KRas, sequence (P01116 whole entry G12C): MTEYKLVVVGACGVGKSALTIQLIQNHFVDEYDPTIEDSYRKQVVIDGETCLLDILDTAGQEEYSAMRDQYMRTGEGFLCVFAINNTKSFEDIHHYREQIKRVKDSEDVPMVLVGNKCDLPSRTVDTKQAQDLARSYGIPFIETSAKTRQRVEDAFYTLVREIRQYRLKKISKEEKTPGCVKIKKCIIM
GTPase KRas (Homo sapiens), P01116 [G12C], sequence (P01116 whole entry G12C): as above

As a reminder, the IC50 is the concentration that inhibits the measured activity by half. On to `C=CC(=O)N1CCN(c2nc(=O)n(-c3ccc(C(=O)O)cc3C(C)C)c3cc(-c4ccccc4Cl)c(Cl)cc23)[C@@H](C)C1`, for which the 50% inhibitory concentration (IC50) with NCI-H358 [1] and with MIA PaCa-2 [2] was greater than 10 µM throughout.
In the case of `C=CC(=O)N1CCN(c2nc(=O)n(-c3ccc(C(=O)NCCCC(=O)Nc4cccc5c4CN(C4CCC(=O)NC4=O)C5=O)cc3C(C)C)c3cc(-c4ccccc4Cl)c(Cl)cc23)[C@@H](C)C1` (some centres not stated), the outcome in assay [3] and in assay [4] was inactive. For the same compound, the 50% inhibitory concentration (IC50) with NCI-H358 [1] came to 22.7 µM; with MIA PaCa-2 [2], 17.1 µM.
`C=CC(=O)N1CCN(c2ncnc3c(F)c(-c4c(O)cccc4F)c(Cl)cc23)CC1` showed an Occ in assay [5] greater than 75%.
In the case of `C=C(F)C(=O)N1CCN(c2nc(OC[C@@H]3CCCN3C)nc3c2CCN(c2cccc4cccc(Cl)c24)C3)C[C@@H]1CC#N` [ADAGRASIB], the half-maximal inhibitory concentration (IC50) in the assay on NCI-H358 [6] stood at 0.001 µM.
For `C=CC(=O)N1CCN(c2nc(NCCCN3CCN(CCCNc4cccc5c4C(=O)N(C4CCC(=O)NC4=O)C5=O)CC3)nc3c(F)c(-c4cc(O)cc5ccccc45)c(Cl)cc23)CC1` (configuration not stated), the results for the IC50 in the assay on MIA PaCa-2 [7] and with NCI-H358 [8] were 4.14 µM and 0.51 µM, respectively.
Turning to `C=CC(=O)N1CCN(c2nc(=O)n(-c3ccc(C(=O)NCCOCCOCCOCCOCC(=O)N[C@H](C(=O)N4C[C@H](O)C[C@H]4C(=O)NCc4ccc(-c5scnc5C)cc4)C(C)(C)C)cc3C(C)C)c3cc(-c4ccccc4Cl)c(Cl)cc23)[C@@H](C)C1`, the figures for the concentration for half-maximal inhibition (IC50) in the assay on NCI-H358 [1] and in the assay with MIA PaCa-2 [2] were 11.1 µM and 17.9 µM, respectively. Moreover, in assay [9], the Activity result was “Dose-Dependent Effect”. The inhibition entry in the assay with NCI-H358 [10] is “Active”. Besides, in [11], the outcome was Active. Further, the result in assay [12] and in assay [13] was inactive.
In the case of `C=CC(=O)N1CCN(c2nc(=O)n(-c3ccc(C(=O)NCc4cn(CCOCCOCCOCCOCC(=O)N[C@H](C(=O)N5C[C@H](O)C[C@H]5C(=O)NCc5ccc(-c6scnc6C)cc5)C(C)(C)C)nn4)cc3C(C)C)c3cc(-c4ccccc4Cl)c(Cl)cc23)[C@@H](C)C1`, the IC50 with NCI-H358 [1] worked out at 17.1 µM; in the assay with MIA PaCa-2 [2], 24.3 µM. In the assay on NCI-H358 [10], the inhibition entry is “Active”. The outcome in assay [11] was Active. The result in [12] and in assay [13] was inactive.
By EC50 is commonly meant the concentration giving half of the maximal effect. For the compound `C=C(F)C(=O)N1CCN(c2nc(OC[C@@H]3CCCN3CCCOCCC(=O)N[C@H](C(=O)N3C[C@H](O)C[C@H]3C(=O)NCc3ccc(-c4scnc4C)cc3)C(C)(C)C)nc3c2CCN(c2cccc4cccc(Cl)c24)C3)C[C@@H]1CC#N`, on GTPase KRas, the EC50 turned out to be 0.32 µM.
Take `C=CC(=O)N1CCN(c2nc(=O)n(-c3ccc(C(=O)NCCCCCC(=O)N[C@H](C(=O)N4C[C@H](O)C[C@H]4C(=O)NCc4ccc(-c5scnc5C)cc4)C(C)(C)C)cc3C(C)C)c3cc(-c4ccccc4Cl)c(Cl)cc23)[C@@H](C)C1`: the IC50 stood at 14.2 µM in the assay on NCI-H358 [1] and 24.2 µM in the assay on MIA PaCa-2 [2]. Also, in [11], the outcome was Active. Also, the result in assay [12] and in [13] was inactive.
Take `C=CC(=O)N1CCN(c2nc(=O)n(-c3ccccc3C(C)C)c3cc(-c4ccccc4Cl)c(Cl)cc23)[C@@H](C)C1`: the IC50 in the assay on NCI-H358 [1] came to 1.48 µM; with MIA PaCa-2 [2], 0.77 µM.
For `C=CC(=O)N1CCN(c2nc(=O)n(-c3c(C)ccnc3C(C)C)c3nc(-c4c(O)cccc4F)c(F)cc23)[C@@H](C)C1` [SOTORASIB], the IC50 in the assay on MIA PaCa-2 [14] was found to be 0.022 µM.
